Reference: patent US20220088144A1, “SGLT-2 INHIBITORS OR IL-1R ANTAGONISTS FOR REDUCTION OF HYPOGLYCAEMIA AFTER BARIATRIC SURGERY” (UNIVERSITÄTSSPITAL BASEL, priority 2019, published 2022)

Assays:
[1] = tested on: bulk monocytes; assay: Ex vivo cytokine-secretion assay of monocytes isolated from treated patients; format: cell-based, human; conditions: for IL-1 beta in monocyte supernatant, estimate vs placebo: FIG. 9a; for IL-1 beta in monocyte supernatant, estimate vs placebo / IL-6 in monocyte supernatant, estimate vs placebo / TNFalpha in monocyte supernatant, estimate vs placebo: post-meal, no-hypo vs placebo, no-hypo, non-stimulated; for IL-6 in monocyte supernatant, estimate vs placebo: FIG. 9b; for TNFalpha in monocyte supernatant, estimate vs placebo: FIG. 9c; for postprandial increase in inflammatory cytokine secretion (IL-1β, IL-6, TNF-α) by monocytes: ex vivo culture 18 h, compared to placebo
Description: In order to evaluate if changes at RNA level translated into protein expression, the inventors cultured monocytes isolated as described for RNA sequencing for a period of 18 h and measured pro-inflammatory cytokines in cell culture supernatants. […] In line with the reasoning, it has been shown that monocytes taken from an inherently pro-inflammatory milieu (septic shock), express increased mRNA levels of various inflammatory cytokines and chemokines (IL-1β, IL-1α, IL-6, CCL2), but release markedly lower levels of protein following ex vivo stimulation with LPS.
Blood samples were taken before and 60 minutes after meal intake. Due to scheduling conflicts, samples from two patients could not be processed. These samples are thus assumed to be missing at random. Of note, samples from patient 3 (sleeve gastrectomy) had already been processed for RNA sequencing before the final change of protocol. Sequencing data obtained from this patient were thus kept for the purpose of these analyses. Peripheral blood mononuclear cells were obtained by Ficoll density gradient centrifugation (Lymphoprep Fresenius Kabi, Norway). For 9 out of 11 patients, an additional step was added after density gradient centrifugation to pre-enrich monocytes by negative selection with CD3 human MicroBeads (#130-050-101; Miltenyi Biotec). The obtained cellular monocyte fractions were then incubated with FC-Block for 15 minutes at room temperature [(Human FcR TruStain FcX (Biolegend) REF 422302, compatible with flow cytometric staining with anti-human CD16 (clone 3G8)], and subsequently labeled with the following antibodies: APC Mouse anti-Human CD3 [HIT3a alpha] (#555342; BD Biosciences), FITC Mouse Anti-Human CD19 [HIB19 RUO] (#560994; BD Biosciences), PE-Cy5 Mouse Anti-Human CD56 [B159 RUO] (#560842; BD Biosciences), PE Mouse Anti-Human CD16 [3G8 RUO] (#560995; BD Biosciences), APC-Cy7 Mouse Anti-Human CD14 [MφP-9 RUO] (#561709; BD Biosciences).
Cells were then further enriched into the three monocyte subsets by fluorescence-activated cell sorting on a BD FACS-Aria III. Classical monocytes were defined as: single, live, CD56− CD19−CD3−CD14+CD16−, Intermediate monocytes were defined as: single, live CD56−CD19− CD3−CD14+CD16+ and non-classical monocytes were defined as: single, live CD56−CD19− CD3−CD14−CD16+. Bulk monocytes were defined as a combination-gate of the three subsets. For a representative example of the gating strategy see FIG. 13.
Bulk monocytes obtained as described above were resuspended in fresh medium (RPMI-1640 (containing 11 mM Glucose, #31870-025; GIBCO) containing 200 U/ml penicillin, 200 U/ml streptomycin (Pen/Strep, #15140; GIBCO), 2 mM Glutamax (#35050061; GIBCO), 1 mM NaPyruvat (#11360-039; GIBCO), 1×MeM (#11140050; Sigma) and 10% FCS (#10500; Invitrogen)) at a density of 50'000 cells/well in a standard 96-well U-bottom plate. For each patient-visit sample, monocytes pre- and post-liquid mixed-meal were either left unstimulated (baseline condition) or activated with LPS (LPS-SM, #tlrl-smlps, Invivogen=activated condition) at a concentration of 5 ng/ml in duplicates. Thus, treated cells were then incubated for a period of 18 hours at 37° C. and 5% CO2 followed by harvesting of cell supernatants. Cytokine concentrations were determined in cell supernatants using the V-PLEX Human Proinflammatory Panel II (4-Plex) kit (Mesoscale Discovery) according to the manufacturer's instructions (Alternate Protocol 1, Extended Incubation). Two patients had to be excluded from analysis due to technical problems.

[2] = tested on: patients after bariatric surgery with post-prandial hypoglycaemia; assay: Clinical symptom scores during mixed-meal test (Edinburgh Hypoglycemia Scale, Sigstad Score, Stanford Sleepiness Scale); format: in vivo, human; parameters: key to Edinburgh Hypoglycemia Scale score, timepoint 180 min / Edinburgh Hypoglycemia Scale score, timepoint −120 min / Edinburgh Hypoglycemia Scale score, timepoint 0 min / Edinburgh Hypoglycemia Scale score, timepoint 60 min / Edinburgh Hypoglycemia Scale score, timepoint 90 min / Edinburgh Hypoglycemia Scale score, timepoint 120 min / Edinburgh Hypoglycemia Scale score, timepoint 150 min: 0 (=no symptoms); 3 (=severe symptoms); a = sweating; b = palpitations; c = shaking; d = hunger; e = confusion; f = drowsiness; g = odd behaviour; h = speech difficulty; i = incoordination; conditions: for Edinburgh Hypoglycemia Scale score, timepoint 0 min / Edinburgh Hypoglycemia Scale score, timepoint 60 min / Edinburgh Hypoglycemia Scale score, timepoint 90 min / Edinburgh Hypoglycemia Scale score, timepoint 120 min / Edinburgh Hypoglycemia Scale score, timepoint 150 min / Edinburgh Hypoglycemia Scale score, timepoint 180 min / Edinburgh Hypoglycemia Scale score, timepoint −120 min: per patient and visit; for Edinburgh Hypoglycemia Scale score, timepoint 60 min: 60 min after meal; for Edinburgh Hypoglycemia Scale score, timepoint 90 min: 90 min after meal; for Edinburgh Hypoglycemia Scale score, timepoint 120 min: 120 min after meal; for Edinburgh Hypoglycemia Scale score, timepoint 150 min: 150 min after meal; for Edinburgh Hypoglycemia Scale score, timepoint 180 min: 180 min after meal; for model coefficient (treatment vs placebo) for occurrence of Edinburgh composite score ≥6: headed FIG. 11a, generalized linear additive mixed effect model; for Edinburgh Hypoglycemia Scale score, timepoint −120 min: −120 min relative to meal (time of oral dosing)
Description: The primary outcome in this study is the change of post-prandial hypoglycaemia after treatment with empagliflozin (Jardiance®) or anakinra (Kineret®) compared to placebo. This was assessed by blood glucose measurements (capillary POCT measurements and plasma glucose) as well as clinical scoring systems (Edinburgh Hypoglycaemia Scale (Deary et al. Diabetologia 1993; 36(8): 771-7), Mixed-Meal-Test (Wiesli et al. Eur J Endocrinol 2005; 152(4): 605-10.) Stanford sleepiness scale).
The secondary objectives are to evaluate whether treatment of empagliflozin (Jardiance®) or anakinra (Kineret®) have effects on the following aspects: • level of insulin secretion and sensitivity • levels of GLP-1, glucagon and C-peptide • levels of IL-6; IL-1Ra, CRP • scores in Edinburgh Hypoglycaemia Scale (clinical score for assessment of hypoglycemia), Stanford Sleepiness Scale (clinical score of assessment of sleepiness) as well as Sigstad Score (clinical score for early and late dumping symptoms) • Length of time and amount of glucose needed for restoring normoglycemia.
Statistical analysis for this proof-of-concept translational clinical trial was done on a per-protocol basis. Sample size was based on practical considerations due to the lack of pre-existing data for this intervention. All analyses are to be considered exploratory. Analysis of continuous dependent outcome variables (e.g. glucose, insulin, c-peptide, GLP-1, glucagon, insulin secretion index and sensitivity, IL-1p, IL-6, IL-8, TNFα), was done using linear mixed effect models fit by maximum likelihood. Analysis of the binary dependent outcome variables occurrence of severe hypoglycemia requiring glucose rescue and occurrence of composite score ≥6 on the Edinburgh Hypoglycemia Scale was done using a generalized linear additive mixed effect model fit by maximum likelihood (Laplace approximation). Models were fit including fixed effects for categorical variables such as gender, the occurrence of hypoglycemia, treatment and in case of values measured in cell culture supernatants, activation status (non-stimulated, LPS-simulated), as well as the continuous variables time and BMI as indicated. A random-effect for patient was equally included (random by-subject intercepts, fixed slopes). Models were computed using the R “Ime4” and “gamm4” packages. • Individual models were visually assessed for the presence of heteroscedasticity, collinearity and normality of residuals. […] For visual representation, log-transformed outcome values were back-transformed to their initial values.

| Compound | IL-1 beta in monocyte supernatant, estimate vs placebo [1] | IL-6 in monocyte supernatant, estimate vs placebo [1] | TNFalpha in monocyte supernatant, estimate vs placebo [1] | postprandial increase in inflammatory cytokine secretion (IL-1β, IL-6, TNF-α) by monocytes [1] | Edinburgh Hypoglycemia Scale score, timepoint 0 min [2] | Edinburgh Hypoglycemia Scale score, timepoint 60 min [2] | Edinburgh Hypoglycemia Scale score, timepoint 90 min [2] | Edinburgh Hypoglycemia Scale score, timepoint 120 min [2] | Edinburgh Hypoglycemia Scale score, timepoint 150 min [2] | Edinburgh Hypoglycemia Scale score, timepoint 180 min [2] | model coefficient (treatment vs placebo) for occurrence of Edinburgh composite score ≥6 [2] | Edinburgh Hypoglycemia Scale score, timepoint −120 min [2] |
| --- | --- | --- | --- | --- | --- | --- | --- | --- | --- | --- | --- | --- |
| OC[C@H]1O[C@@H](c2ccc(Cl)c(Cc3ccc(O[C@H]4CCOC4)cc3)c2)[C@H](O)[C@@H](O)[C@@H]1O [empagliflozin] | −3395.36 | −18937.7 | −453.496 | significantly inhibited | 0 | 0 | 0 | 0 | 0 | 0 | −2.429 | 0 |
| anakinra: CAS NO 143090-92-0; recombinant, non-glycosylated form of the human interleukin-1 receptor antagonist (IL-1 Ra), 153 amino acids | −2426.73 | −17208.1 | −452.659 | significantly inhibited | 0 | 0 | 0 | 0 | 0 | 0 | −2.429 | 0 |
